Measurements taken from patent publication US6586402B1, “LH-RH peptide analogues, their uses and pharmaceutical compositions containing them” (Laboratoire Theramex, priority 1997, dated 2003).
Entries after “also recorded” stand apart in the source; their conditions may differ. Read-outs that look alike come from different tables or passages of the source. Square brackets hold non-standard residues; d marks the D form. Peptide text beside a SMILES is read from it. dPhe(4-Cl) = N[C@H](Cc1ccc(Cl)cc1)C(=O)O; d2Nal = N[C@H](Cc1ccc2ccccc2c1)C(=O)O; d(hCit) = NC(=O)NCCCC[C@@H](N)C(=O)O; dCit = NC(=O)NCCC[C@@H](N)C(=O)O; tBuAla = CC(C)(C)C[C@H](N)C(=O)O; d3Pal = N[C@H](Cc1cccnc1)C(=O)O; pGlu = O=C1CC[C@@H](C(=O)O)N1

B1: AcD-Nal-D-pClPhe-D-Pal-Ser-Tyr-D-Cit-Npg-Arg-Pro-D-Ala-NH2 (peptide)
peptide: Ac-X[dPhe(4-Cl)][d3Pal]SY[dCit][tBuAla]RP[dA]-NH2
modifications: not fully specified (residue 1); printed as AcD-Nal-D-pClPhe-D-Pal-Ser-Tyr-D-Cit-Npg-Arg-Pro-D-Ala-NH2; also: trifluoroacetate salt
B2: AcD-Nal-D-pClPhe-D-Pal-Ser-Tyr-D-HCit-Npg-Arg-Pro-D-Ala-NH2 (peptide)
peptide: Ac-X[dPhe(4-Cl)][d3Pal]SY[d(hCit)][tBuAla]RP[dA]-NH2
modifications: not fully specified (residue 1); printed as AcD-Nal-D-pClPhe-D-Pal-Ser-Tyr-D-HCit-Npg-Arg-Pro-D-Ala-NH2; also: trifluoroacetate salt
B3: pGlu-His-Trp-Ser-Tyr-D-Nal-Npg-Arg-Pro-Gly-NH2 (peptide)
peptide: XHWSYXXRPG
modifications: pGlu at 1; D-Nal (3-(2-naphtyl)alanine) at 6; Npg at 7; C-terminal Gly-NH2 (amide)

What was measured:
[1] = target: T1, LH-RH receptors (Rattus norvegicus, UniProt P30969); assay: biochemical
T1 sequence (P30969 1-327): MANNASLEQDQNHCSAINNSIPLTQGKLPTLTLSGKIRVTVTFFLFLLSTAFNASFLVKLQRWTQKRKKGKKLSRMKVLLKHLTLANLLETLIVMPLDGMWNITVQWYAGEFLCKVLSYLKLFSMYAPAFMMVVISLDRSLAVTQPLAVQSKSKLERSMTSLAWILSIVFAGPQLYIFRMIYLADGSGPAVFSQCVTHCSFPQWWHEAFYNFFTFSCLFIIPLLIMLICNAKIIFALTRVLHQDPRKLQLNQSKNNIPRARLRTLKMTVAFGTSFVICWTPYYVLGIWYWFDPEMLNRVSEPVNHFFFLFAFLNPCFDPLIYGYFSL

[2] = target: T1, LH-RH receptors
[3] = target: LH-RH receptors (membrane fractions of pituitaries from female Sprague Dawley rats) (rat (female Sprague Dawley)) (UniProt P30969); assay: competition with [125I]-buserelin, rat pituitary membranes; Ki by Cheng-Prusoff
[4] = target: T1, LH-RH receptors; assay: Stimulation of testosterone secretion in adult male rats after subcutaneous injection (agonist activity in vivo); set-up: exert an agonist activity upon the LH-RH receptors in vivo; from tissue; host or cells: whole animal, adult male Sprague-Dawley rats; species or system Sprague-Dawley rats; details: for Total plasma testosterone: Table 2, 10 ng/kg subcutaneous in PBS, blood two hours later, male Sprague-Dawley rats, vehicle 2.7 ± 0.3; for agonistic potency in words: comment on Tables 2 and 3
Protocol: The peptides according to the general formula (IIa) exert an agonist activity upon the LH-RH receptors in vivo, resulting in the stimulation of LH secretion by the pituitary, which, in males, stimulates the secretion of testosterone by the testis.
Two hours later, blood samples were drawn for total plasma testosterone determination by direct radioimmunoassay (Immunotech).
At this intermediate dose of 10 ng/kg, several examples with Npg^7 or Ada^7 in place of Leu^7 according to the invention were screened for agonistic activity (Tables 2 and 3). When available from Bachem (France) or Sigma (France), the corresponding standard agonist with Leu^7 was tested for comparison.

Molecule	Ki [1] [nM]	pKi [3]	other results
CC(=O)N[C@H](Cc1ccc2ccccc2c1)C(=O)N[C@H](Cc1ccc(Cl)cc1)C(=O)N[C@H](Cc1cccnc1)C(=O)N[C@@H](CO)C(=O)N[C@@H](Cc1ccc(O)cc1)C(=O)N[C@H](CCCNC(N)=O)C(=O)N[C@@H](CC(C)(C)C)C(=O)N[C@@H](CCCNC(=N)N)C(=O)N1CCC[C@H]1C(=O)N[C@H](C)C(N)=O [Example 16, AcD-Nal-D-pClPhe-D-Pal-Ser-Tyr-D-Cit-Npg-Arg-Pro-D-Ala-NH2] (Ac-[d2Nal][dPhe(4-Cl)][d3Pal]SY[dCit][tBuAla]RP[dA]-NH2)	0.0676		% of inhibition of ovulation ([2]; 0.25 μg/rat s.c.): 20%; Number of ovulating females/total number of treated females ([2]; 0.25 μg/rat s.c.): 4/5; % of inhibition of ovulation ([2]; 1 μg/rat s.c.): 100%; Number of ovulating females/total number of treated females ([2]; 1 μg/rat s.c.): 0/5; antiovulatory activity in words ([2]; 1 μg/rat s.c.): maximal or sub-maximal activity
pGlu-His-Trp-Ser-Tyr-D-Ala-Npg-Arg-Pro-NEt (peptide)		10 -log Ki	
CCNC(=O)[C@@H]1CCCN1C(=O)[C@H](CCCNC(=N)N)NC(=O)[C@H](CC(C)(C)C)NC(=O)[C@@H](Cc1c[nH]c2ccccc12)NC(=O)[C@H](Cc1ccc(O)cc1)NC(=O)[C@H](CO)NC(=O)[C@H](Cc1c[nH]c2ccccc12)NC(=O)[C@H](Cc1c[nH]cn1)NC(=O)[C@@H]1CCC(=O)N1 [Example 12, pGlu-His-Trp-Ser-Tyr-D-Trp-Npg-Arg-Pro-NEt]	0.162		Total plasma testosterone [4]: 20.5 ± 5.2 nmol/L
pGlu-His-Trp-Ser-Tyr-D-Phe-Npg-Arg-Pro-NEt (peptide)		9.64 -log Ki	
CCNC(=O)[C@@H]1CCCN1C(=O)[C@H](CCCNC(=N)N)NC(=O)[C@H](CC(C)(C)C)NC(=O)[C@@H](Cc1ccccc1)NC(=O)[C@H](Cc1ccc(O)cc1)NC(=O)[C@H](CO)NC(=O)[C@H](Cc1c[nH]c2ccccc12)NC(=O)[C@H](Cc1c[nH]cn1)NC(=O)[C@@H]1CCC(=O)N1 [Example 10, pGlu-His-Trp-Ser-Tyr-D-Phe-Npg-Arg-Pro-NEt]	0.229		Total plasma testosterone [4]: 23.5 ± 4.0 nmol/L
CC(C)(C)C[C@H](NC(=O)[C@@H](Cc1ccccc1)NC(=O)[C@H](Cc1ccc(O)cc1)NC(=O)[C@H](CO)NC(=O)[C@H](Cc1c[nH]c2ccccc12)NC(=O)[C@H](Cc1c[nH]cn1)NC(=O)[C@@H]1CCC(=O)N1)C(=O)N[C@@H](CCCNC(=N)N)C(=O)N1CCC[C@H]1C(=O)NCC(N)=O [Example 9, pGlu-His-Trp-Ser-Tyr-D-Phe-Npg-Arg-Pro-Gly-NH2] ([pGlu]HWSY[dF][tBuAla]RPG-NH2)	2.34		agonistic potency in words ([4]; 10 ng/kg s.c.): range of potency similar to that of leuprorelin or tryptorelin; Total plasma testosterone [4]: 30.9 ± 3.6 nmol/L
CCNC(=O)[C@@H]1CCCN1C(=O)[C@H](CCCNC(=N)N)NC(=O)[C@H](CC(C)(C)C)NC(=O)[C@@H](CC(C)(C)C)NC(=O)[C@H](Cc1ccc(O)cc1)NC(=O)[C@H](CO)NC(=O)[C@H](Cc1c[nH]c2ccccc12)NC(=O)[C@H](Cc1c[nH]cn1)NC(=O)[C@@H]1CCC(=O)N1 [Example 8, pGlu-His-Trp-Ser-Tyr-D-Npg-Npg-Arg-Pro-NEt]	1.86		
C[C@@H](NC(=O)[C@H](Cc1ccc(O)cc1)NC(=O)[C@H](CO)NC(=O)[C@H](Cc1c[nH]c2ccccc12)NC(=O)[C@H](Cc1c[nH]cn1)NC(=O)[C@@H]1CCC(=O)N1)C(=O)N[C@@H](CC(C)(C)C)C(=O)N[C@@H](CCCNC(=N)N)C(=O)N1CCC[C@H]1C(=O)NCC(N)=O [Example 3, pGlu-His-Trp-Ser-Tyr-D-Ala-Npg-Arg-Pro-Gly-NH2] ([pGlu]HWSY[dA][tBuAla]RPG-NH2)	0.269		Total plasma testosterone [4]: 16.7 ± 1.9 nmol/L
CCNC(=O)[C@@H]1CCCN1C(=O)[C@H](CCCNC(=N)N)NC(=O)[C@H](CC(C)(C)C)NC(=O)[C@@H](Cc1ccc2ccccc2c1)NC(=O)[C@H](Cc1ccc(O)cc1)NC(=O)[C@H](CO)NC(=O)[C@H](Cc1c[nH]c2ccccc12)NC(=O)[C@H](Cc1c[nH]cn1)NC(=O)[C@@H]1CCC(=O)N1 [Example 14, pGlu-His-Trp-Ser-Tyr-D-Nal-Npg-Arg-Pro-NEt]	0.316		
pGlu-His-Trp-Ser-Tyr-D-Nal-Npg-Arg-Pro-NEt (peptide)		9.5 -log Ki	
AcD-Nal-D-pClPhe-D-Pal-Ser-Tyr-D-Cit-Npg-IprLys-Pro-D-Ala-NH2 (peptide)		9.72 -log Ki	
CCNC(=O)[C@@H]1CCCN1C(=O)[C@H](CCCNC(=N)N)NC(=O)[C@H](CC(C)C)NC(=O)[C@@H](COC(C)(C)C)NC(=O)[C@H](Cc1ccc(O)cc1)NC(=O)[C@H](CO)NC(=O)[C@H](Cc1c[nH]c2ccccc12)NC(=O)[C@H](Cc1cnc[nH]1)NC(=O)[C@@H]1CCC(=O)N1 [Buserelin, reference compound]	0.447		
AcD-Nal-D-pClPhe-D-Pal-Ser-NicLys-D-NicLys-Npg-IprLys-Pro-D-Ala-NH2 (peptide)		9.23 -log Ki	
pGlu-His-Trp-Ser-Tyr-D-Trp-Npg-Arg-Pro-NEt (peptide)		9.79 -log Ki	
pGlu-His-Trp-Ser-Tyr-D-Npg-Npg-Arg-Pro-NEt (peptide)		8.73 -log Ki	
CCNC(=O)[C@@H]1CCCN1C(=O)[C@H](CCCNC(=N)N)NC(=O)[C@H](CC(C)(C)C)NC(=O)[C@@H](CC(C)C)NC(=O)[C@H](Cc1ccc(O)cc1)NC(=O)[C@H](CO)NC(=O)[C@H](Cc1c[nH]c2ccccc12)NC(=O)[C@H](Cc1c[nH]cn1)NC(=O)[C@@H]1CCC(=O)N1 [Example 6, pGlu-His-Trp-Ser-Tyr-D-Leu-Npg-Arg-Pro-NEt]	0.468		activity in stimulating testosterone secretion relative to the Leu^7 counterpart ([4]; 10 ng/kg s.c.): a little more than twice as active as leuprorelin; agonistic potency in words ([4]; 10 ng/kg s.c.): Npg^7 led to more potent agonists than Ada^7; also recorded: more potent LH-RH agonists than current therapeutic LH-RH analogues; Total plasma testosterone [4]: 48.6 ± 4.3 nmol/L
CC(C)(C)C[C@H](NC(=O)[C@@H](Cc1ccc2ccccc2c1)NC(=O)[C@H](Cc1ccc(O)cc1)NC(=O)[C@H](CO)NC(=O)[C@H](Cc1c[nH]c2ccccc12)NC(=O)[C@H](Cc1c[nH]cn1)NC(=O)[C@@H]1CCC(=O)N1)C(=O)N[C@@H](CCCNC(=N)N)C(=O)N1CCC[C@H]1C(=O)NCC(N)=O [Example 13, pGlu-His-Trp-Ser-Tyr-D-Nal-Npg-Arg-Pro-Gly-NH2] ([pGlu]HWSY[d2Nal][tBuAla]RPG-NH2)	1.07		agonistic potency in words ([4]; 10 ng/kg s.c.): range of potency similar to that of leuprorelin or tryptorelin; Total plasma testosterone [4]: 22.9 ± 4.2 nmol/L
CCNC(=O)[C@@H]1CCCN1C(=O)[C@H](CCCNC(=N)N)NC(=O)[C@H](CC(C)(C)C)NC(=O)[C@@H](C)NC(=O)[C@H](Cc1ccc(O)cc1)NC(=O)[C@H](CO)NC(=O)[C@H](Cc1c[nH]c2ccccc12)NC(=O)[C@H](Cc1c[nH]cn1)NC(=O)[C@@H]1CCC(=O)N1 [Example 4, pGlu-His-Trp-Ser-Tyr-D-Ala-Npg-Arg-Pro-NEt]	0.0977		Total plasma testosterone [4]: 33.8 ± 5.8 nmol/L
B1		10.2 -log Ki	
XHWSYXXRPG (pGlu at 1; D-Npg at 6; Npg at 7; C-terminal Gly-NH2 (amide)) [pGlu-His-Trp-Ser-Tyr-D-Npg-Npg-Arg-Pro-Gly-NH2]		8.2 -log Ki	
XHWSYXXRPG (pGlu at 1; D-Ala at 6; Npg at 7; C-terminal Gly-NH2 (amide)) [pGlu-His-Trp-Ser-Tyr-D-Ala-Npg-Arg-Pro-Gly-NH2]		9.57 -log Ki	
XHWSYXXRPG (pGlu at 1; D-Phe at 6; Npg at 7; C-terminal Gly-NH2 (amide)) [pGlu-His-Trp-Ser-Tyr-D-Phe-Npg-Arg-Pro-Gly-NH2]		8.63 -log Ki	
B2		10.1 -log Ki	
B3		8.97 -log Ki	
